Laboratory results from patent publication US8299035B2, “10a-azalide compound having 4-membered ring structure” (Taisho Pharmaceutucal Co., Ltd., priority 2008, dated 2012).
In brackets after ≈: the same amount, converted by molar mass.

Key:
Test in all cases: In vitro antibacterial activity, microbroth dilution method (CLSI method)
Assay type in all cases: cell-based
[1] = test system: H. influenzae ATCC 43095; details: bacteria symbol A = H. influenzae ATCC 43095
Experimental: (§1) In vitro antibacterial activities of the compounds of the present invention against various test bacteria were measured according to the microbroth dilution method (CLSI method). The exemplary compounds shown in Table 9 and the comparative agent 1, clarithromycin, were used as test substances. The results are shown as MIC values (minimum inhibitory concentration, μg/ml) in Table 9. [table]

[2] = test system: S. pneumoniae ATCC 700904; details: bacteria symbol D = S. pneumoniae ATCC 700904
Experimental: as §1

[3] = test system: H. influenzae Rd; details: bacteria symbol B = H. influenzae Rd
Experimental: as §1

[4] = test system: S. pneumoniae ATCC 49619; details: bacteria symbol C = S. pneumoniae ATCC 49619
Experimental: as §1

SMILES: CO[C@]1(C)C[C@H](O[C@H]2[C@H](C)[C@@H](O[C@@H]3O[C@H](C)C[C@H](N(C)C)[C@H]3O)[C@@](C)(OC)C[C@@H](C)[C@H](O)[C@H](C)N3CC(C3)OC(=O)[C@@H]2C)O[C@@H](C)[C@@H]1O (mixture of isomers) [Example 1]
- MIC values (minimum inhibitory concentration) [1]: 0.5 µg/mL
- MIC values (minimum inhibitory concentration) [2]: >128 µg/mL
- MIC values (minimum inhibitory concentration) [3]: 1 µg/mL
- MIC values (minimum inhibitory concentration) [4]: 0.12 µg/mL

SMILES: CC[C@H]1OC(=O)[C@H](C)[C@@H](O[C@H]2C[C@@](C)(OC)[C@@H](O)[C@H](C)O2)[C@H](C)[C@@H](O[C@@H]2O[C@H](C)C[C@H](N(C)C)[C@H]2O)[C@](C)(OC)C[C@@H](C)C(=O)[C@H](C)[C@@H](O)[C@]1(C)O [Comparative agent 1, clarithromycin, reference compound]
- MIC ([1]; Haemophilus influenzae, ATCC43095, read-out: MIC values (minimum inhibitory concentration)): 4 µg/mL (≈ 5.35 µM)
- MIC ([2]; Streptococcus pneumoniae, ATCC700904, read-out: MIC values (minimum inhibitory concentration)): > 128 µg/mL
- MIC ([3]; Haemophilus influenzae, read-out: MIC values (minimum inhibitory concentration)): 8 µg/mL (≈ 10.7 µM)
- MIC ([4]; Streptococcus pneumoniae, ATCC49619, read-out: MIC values (minimum inhibitory concentration)): 0.03 µg/mL (≈ 0.0401 µM)

SMILES: CCN(CCNC(=O)O[C@H]1[C@H](C)O[C@@H](O[C@H]2[C@H](C)[C@@H](O[C@@H]3O[C@H](C)C[C@H](N(C)C)[C@H]3O)[C@@](C)(OC)C[C@@H](C)[C@H](O)[C@H](C)N3CC(C3)OC(=O)[C@@H]2C)C[C@@]1(C)OC)[C@@H](C)c1ccccc1OC [Example 2]
- MIC values (minimum inhibitory concentration) [1]: 4 µg/mL (≈ 4.27 µM)
- MIC values (minimum inhibitory concentration) [2]: 0.25 µg/mL (≈ 0.267 µM)
- MIC values (minimum inhibitory concentration) [3]: 8 µg/mL (≈ 8.54 µM)
- MIC values (minimum inhibitory concentration) [4]: 0.06 µg/mL (≈ 0.064 µM)

SMILES: CCN(CCNC[C@@]1(O)[C@H](C)O[C@@H](O[C@H]2[C@H](C)[C@@H](O[C@@H]3O[C@H](C)C[C@H](N(C)C)[C@H]3O)[C@@](C)(OC)C[C@@H](C)[C@H](O)[C@H](C)N3CC(C3)OC(=O)[C@@H]2C)C[C@@]1(C)OC)[C@@H](C)c1ccccc1OC [Example 3]
- MIC values (minimum inhibitory concentration) [1]: 4 µg/mL (≈ 4.33 µM)
- MIC values (minimum inhibitory concentration) [2]: 0.12 µg/mL (≈ 0.13 µM)
- MIC values (minimum inhibitory concentration) [3]: 4 µg/mL (≈ 4.33 µM)
- MIC values (minimum inhibitory concentration) [4]: 0.03 µg/mL (≈ 0.0325 µM)

SMILES: CCN(CCNC[C@@]1(O)[C@H](C)O[C@@H](O[C@H]2[C@H](C)[C@@H](O[C@@H]3O[C@H](C)C[C@H](N(C)C)[C@H]3O)[C@@](C)(OC)C[C@@H](C)C(=O)[C@H](C)N3CC(C3)OC(=O)[C@@H]2C)C[C@@]1(C)OC)[C@@H](C)c1ccccc1OC [Example 5]
- MIC values (minimum inhibitory concentration) [1]: 4 µg/mL (≈ 4.34 µM)
- MIC values (minimum inhibitory concentration) [2]: 0.5 µg/mL (≈ 0.543 µM)
- MIC values (minimum inhibitory concentration) [3]: 8 µg/mL (≈ 8.68 µM)
- MIC values (minimum inhibitory concentration) [4]: 0.03 µg/mL (≈ 0.0326 µM)

SMILES: CCN(CCNC(=O)O[C@H]1[C@H](C)O[C@@H](O[C@H]2[C@H](C)[C@@H](O[C@@H]3O[C@H](C)C[C@H](N(C)C)[C@H]3O)[C@@](C)(O)C[C@@H](C)[C@H](O)[C@H](C)N3CC(C3)OC(=O)[C@@H]2C)C[C@@]1(C)OC)[C@@H](C)c1ccccc1OC [Example 12]
- MIC values (minimum inhibitory concentration) [1]: 8 µg/mL (≈ 8.67 µM)
- MIC values (minimum inhibitory concentration) [2]: 0.25 µg/mL (≈ 0.271 µM)
- MIC values (minimum inhibitory concentration) [3]: 8 µg/mL (≈ 8.67 µM)
- MIC values (minimum inhibitory concentration) [4]: 0.03 µg/mL (≈ 0.0325 µM)

SMILES: COC1(C)CC(C)C(O)C(C)N2CC(C2)OC(=O)C(C)C(OC2CC(C)(OC)C(O)(CNCCNC(C)(C)c3cccc4c3ccn4C)C(C)O2)C(C)C1OC1OC(C)CC(N(C)C)C1O (stereo not shown) [Example 70]
- MIC values (minimum inhibitory concentration) [1]: 4 µg/mL (≈ 4.29 µM)
- MIC values (minimum inhibitory concentration) [2]: 0.25 µg/mL (≈ 0.268 µM)
- MIC values (minimum inhibitory concentration) [3]: 4 µg/mL (≈ 4.29 µM)
- MIC values (minimum inhibitory concentration) [4]: 0.12 µg/mL (≈ 0.129 µM)

SMILES: COc1ccccc1C(C)(C)N(C)CCN(C)CC1(O)C(C)OC(OC2C(C)C(=O)OC3CN(C3)C(C)C(O)C(C)CC(C)(OC)C(OC3OC(C)CC(N(C)C)C3O)C2C)CC1(C)OC (stereo not shown) [Example 71]
- MIC values (minimum inhibitory concentration) [1]: 2 µg/mL (≈ 2.13 µM)
- MIC values (minimum inhibitory concentration) [2]: 0.12 µg/mL (≈ 0.128 µM)
- MIC values (minimum inhibitory concentration) [3]: 2 µg/mL (≈ 2.13 µM)
- MIC values (minimum inhibitory concentration) [4]: 0.03 µg/mL (≈ 0.032 µM)

SMILES: CCN(CC(C)NCC1(O)C(C)OC(OC2C(C)C(=O)OC3CN(C3)C(C)C(O)C(C)CC(C)(OC)C(OC3OC(C)CC(N(C)C)C3O)C2C)CC1(C)OC)C(C)(C)c1ccccc1OC (stereo not shown) [Example 84]
- MIC values (minimum inhibitory concentration) [1]: 4 µg/mL (≈ 4.2 µM)
- MIC values (minimum inhibitory concentration) [2]: 0.06 µg/mL (≈ 0.0631 µM)
- MIC values (minimum inhibitory concentration) [3]: 4 µg/mL (≈ 4.2 µM)
- MIC values (minimum inhibitory concentration) [4]: 0.016 µg/mL (≈ 0.0168 µM)

SMILES: CCN(CC(CO)NCC1(O)C(C)OC(OC2C(C)C(=O)OC3CN(C3)C(C)C(O)C(C)CC(C)(OC)C(OC3OC(C)CC(N(C)C)C3O)C2C)CC1(C)OC)C(C)c1ccccc1OC (stereo not shown) [Example 107]
- MIC values (minimum inhibitory concentration) [1]: 4 µg/mL (≈ 4.2 µM)
- MIC values (minimum inhibitory concentration) [2]: 0.06 µg/mL (≈ 0.0629 µM)
- MIC values (minimum inhibitory concentration) [3]: 4 µg/mL (≈ 4.2 µM)
- MIC values (minimum inhibitory concentration) [4]: 0.03 µg/mL (≈ 0.0315 µM)

SMILES: COc1cccc2c1CN(CCN(C)CC1(O)C(C)OC(OC3C(C)C(=O)OC4CN(C4)C(C)C(O)C(C)CC(C)(OC)C(OC4OC(C)CC(N(C)C)C4O)C3C)CC1(C)OC)CC2 (stereo not shown) [Example 132]
- MIC values (minimum inhibitory concentration) [1]: 4 µg/mL (≈ 4.34 µM)
- MIC values (minimum inhibitory concentration) [2]: 1 µg/mL (≈ 1.09 µM)
- MIC values (minimum inhibitory concentration) [3]: 8 µg/mL (≈ 8.68 µM)
- MIC values (minimum inhibitory concentration) [4]: 0.06 µg/mL (≈ 0.0651 µM)

SMILES: COc1cccc2c1CCCC2N(C)CCN(C)CC1(O)C(C)OC(OC2C(C)C(=O)OC3CN(C3)C(C)C(O)C(C)CC(C)(OC)C(OC3OC(C)CC(N(C)C)C3O)C2C)CC1(C)OC (stereo not shown) [Example 133]
- MIC values (minimum inhibitory concentration) [1]: 8 µg/mL (≈ 8.43 µM)
- MIC values (minimum inhibitory concentration) [2]: 0.5 µg/mL (≈ 0.527 µM)
- MIC values (minimum inhibitory concentration) [3]: 16 µg/mL (≈ 16.9 µM)
- MIC values (minimum inhibitory concentration) [4]: 0.12 µg/mL (≈ 0.126 µM)

SMILES: COc1ccccc1C(C)(C)N(C)CC1CN(CC2(O)C(C)OC(OC3C(C)C(=O)OC4CN(C4)C(C)C(O)C(C)CC(C)(OC)C(OC4OC(C)CC(N(C)C)C4O)C3C)CC2(C)OC)C1 (stereo not shown) [Example 162]
- MIC values (minimum inhibitory concentration) [1]: 2 µg/mL (≈ 2.11 µM)
- MIC values (minimum inhibitory concentration) [2]: 0.12 µg/mL (≈ 0.126 µM)
- MIC values (minimum inhibitory concentration) [3]: 2 µg/mL (≈ 2.11 µM)
- MIC values (minimum inhibitory concentration) [4]: 0.03 µg/mL (≈ 0.0316 µM)

SMILES: COC1(C)CC(C)C(O)C(C)N2CC(C2)OC(=O)C(C)C(OC2CC(C)(OC)C(O)(CN(C)CCN(C)C(C)c3ccccc3-c3ccccn3)C(C)O2)C(C)C1OC1OC(C)CC(N(C)C)C1O (stereo not shown) [Example 195]
- MIC values (minimum inhibitory concentration) [1]: 4 µg/mL (≈ 4.12 µM)
- MIC values (minimum inhibitory concentration) [2]: 0.06 µg/mL (≈ 0.0618 µM)
- MIC values (minimum inhibitory concentration) [3]: 8 µg/mL (≈ 8.24 µM)
- MIC values (minimum inhibitory concentration) [4]: 0.03 µg/mL (≈ 0.0309 µM)

SMILES: COc1ccccc1C(C)(C)N(C)Cc1cncn1CC1(O)C(C)OC(OC2C(C)C(=O)OC3CN(C3)C(C)C(O)C(C)CC(C)(OC)C(OC3OC(C)CC(N(C)C)C3O)C2C)CC1(C)OC (stereo not shown) [Example 204]
- MIC values (minimum inhibitory concentration) [1]: 16 µg/mL (≈ 16.7 µM)
- MIC values (minimum inhibitory concentration) [2]: 1 µg/mL (≈ 1.04 µM)
- MIC values (minimum inhibitory concentration) [3]: 16 µg/mL (≈ 16.7 µM)
- MIC values (minimum inhibitory concentration) [4]: 0.03 µg/mL (≈ 0.0312 µM)

SMILES: COc1ncccc1C(C)(C)N(C)CCN(C)C[C@@]1(O)[C@H](C)O[C@@H](O[C@H]2[C@H](C)[C@@H](O[C@@H]3O[C@H](C)C[C@H](N(C)C)[C@H]3O)[C@@](C)(O)C[C@@H](C)[C@H](O)[C@H](C)N3CC(C3)OC(=O)[C@@H]2C)C[C@@]1(C)OC [Example 221]
- MIC values (minimum inhibitory concentration) [1]: 8 µg/mL (≈ 8.66 µM)
- MIC values (minimum inhibitory concentration) [2]: 1 µg/mL (≈ 1.08 µM)
- MIC values (minimum inhibitory concentration) [3]: 8 µg/mL (≈ 8.66 µM)
- MIC values (minimum inhibitory concentration) [4]: 0.06 µg/mL (≈ 0.0649 µM)
